Results: patent US12077503B2, “Substituted cyclic amides and their use as herbicides” (FMC CORPORATION, priority 2015, dated 2024)

How the values were obtained:
Format in all cases: in vivo
[1] = system: barnyardgrass (Echinochloa crus-galli); assay: Test A preemergence; conditions: Echinochloa crus-galli, pre-emergence, 240 h, 0 to 100 scale (0 no effect, 100 complete control), read-out: Plant response rating, Barnyardgrass; for pest or weed control at 500 g/ha: 500 g ai/ha, preemergence; for pest or weed control at 125 g/ha: Preemergence, 125 g ai/ha
Summary of the method: (§1)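 Greenhouse, ~10 d after spray; visual injury vs untreated controls, 0 = no effect, 100 = complete control. Preemergence: directed soil spray over planted seeds. Postemergence: plants 2–10 cm, 1–2 leaf stage. Loam/sand blend. Compound in non-phytotoxic solvent with surfactant.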

[2] = system: morningglory (Ipomoea spp.); assay: Test A preemergence; conditions: Ipomoea, pre-emergence, 240 h, 0 to 100 scale (0 no effect, 100 complete control), read-out: Plant response rating, Morningglory; for pest or weed control at 500 g/ha: 500 g ai/ha, preemergence; for pest or weed control at 125 g/ha: Preemergence, 125 g ai/ha
Summary of the method: as §1

[3] = system: velvetleaf (Abutilon theophrasti); assay: Test A preemergence; conditions: Abutilon theophrasti, pre-emergence, 240 h, 0 to 100 scale (0 no effect, 100 complete control), read-out: Plant response rating, Velvetleaf; for pest or weed control at 500 g/ha: 500 g ai/ha, preemergence; for pest or weed control at 125 g/ha: Preemergence, 125 g ai/ha
Summary of the method: as §1

[4] = system: giant foxtail (Setaria faberii); assay: Test A preemergence; conditions: Setaria faberi, pre-emergence, 240 h, 0 to 100 scale (0 no effect, 100 complete control), read-out: Plant response rating, Foxtail, Giant; for pest or weed control at 500 g/ha: 500 g ai/ha, preemergence; for pest or weed control at 125 g/ha: Preemergence, 125 g ai/ha
Summary of the method: as §1

[5] = system: pigweed (Amaranthus retroflexus); assay: Test A preemergence; conditions: Amaranthus retroflexus, pre-emergence, 240 h, 0 to 100 scale (0 no effect, 100 complete control), read-out: Plant response rating, Pigweed; for pest or weed control at 500 g/ha: 500 g ai/ha, preemergence; for pest or weed control at 125 g/ha: Preemergence, 125 g ai/ha
[6] = system: wheat (Triticum aestivum); assay: Test A preemergence; conditions: Triticum aestivum, pre-emergence, 240 h, 0 to 100 scale (0 no effect, 100 complete control), read-out: Plant response rating, Wheat; for plant injury at 500 g/ha: 500 g ai/ha, preemergence; for plant injury at 125 g/ha: Preemergence, 125 g ai/ha
Summary of the method: as §1

corn (Zea mays) [7] = assay: Test A preemergence; conditions: Zea mays, pre-emergence, 240 h, 0 to 100 scale (0 no effect, 100 complete control); for Corn plant response rating (crop injury, 0 = no effect, 100 = complete kill) at 500 g/ha: 500 g ai/ha, preemergence; for Corn plant response rating (crop injury, 0 = no effect, 100 = complete kill) at 125 g/ha: Preemergence, 125 g ai/ha
Summary of the method: as §1

[8] = system: crabgrass, large (Digitaria sanguinalis); assay: Test A preemergence; conditions: Digitaria sanguinalis, pre-emergence, 240 h, 0 to 100 scale (0 no effect, 100 complete control), read-out: Plant response rating, Crabgrass, Large; for pest or weed control at 500 g/ha: 500 g ai/ha, preemergence; for pest or weed control at 125 g/ha: Preemergence, 125 g ai/ha
Summary of the method: as §1

[9] = system: barnyardgrass (Echinochloa crus-galli); assay: Test A postemergence; conditions: Echinochloa crus-galli, post-emergence, 240 h, Postemergence; for pest or weed control at 125 g/ha: 125 g ai/ha, visual rating about 10 d after treatment, read-out: Barnyardgrass plant response rating (0 to 100 scale, 0 no effect, 100 complete control); for pest or weed control at 500 g/ha: 500 g ai/ha, visual injury, 0 to 100 scale (0 no effect, 100 complete control), approx. 10 d, read-out: Plant response rating, Barnyardgrass
Summary of the method: as §1

[10] = system: morningglory (Ipomoea spp.); assay: Test A postemergence; conditions: Ipomoea, post-emergence, 240 h, Postemergence; for pest or weed control at 125 g/ha: 125 g ai/ha, visual rating about 10 d after treatment, read-out: Morningglory plant response rating (0 to 100 scale); for pest or weed control at 500 g/ha: 500 g ai/ha, visual injury, 0 to 100 scale (0 no effect, 100 complete control), approx. 10 d, read-out: Plant response rating, Morningglory
Summary of the method: as §1

[11] = system: velvetleaf (Abutilon theophrasti); assay: Test A postemergence; conditions: Abutilon theophrasti, post-emergence, 240 h, Postemergence; for pest or weed control at 125 g/ha: 125 g ai/ha, visual rating about 10 d after treatment, read-out: Velvetleaf plant response rating (0 to 100 scale); for pest or weed control at 500 g/ha: 500 g ai/ha, visual injury, 0 to 100 scale (0 no effect, 100 complete control), approx. 10 d, read-out: Plant response rating, Velvetleaf
Summary of the method: as §1

[12] = system: giant foxtail (Setaria faberii); assay: Test A postemergence; conditions: Setaria faberi, post-emergence, 240 h, Postemergence; for pest or weed control at 125 g/ha: 125 g ai/ha, visual rating about 10 d after treatment, read-out: Foxtail, Giant plant response rating (0 to 100 scale); for pest or weed control at 500 g/ha: 500 g ai/ha, visual injury, 0 to 100 scale (0 no effect, 100 complete control), approx. 10 d, read-out: Plant response rating, Foxtail, Giant
Summary of the method: as §1

[13] = system: pigweed (Amaranthus retroflexus); assay: Test A postemergence; conditions: Amaranthus retroflexus, post-emergence, 240 h, Postemergence; for pest or weed control at 125 g/ha: 125 g ai/ha, visual rating about 10 d after treatment, read-out: Pigweed plant response rating (0 to 100 scale); for pest or weed control at 500 g/ha: 500 g ai/ha, visual injury, 0 to 100 scale (0 no effect, 100 complete control), approx. 10 d, read-out: Plant response rating, Pigweed
Summary of the method: as §1

[14] = system: wheat (Triticum aestivum); assay: Test A postemergence; conditions: Triticum aestivum, post-emergence, 240 h, Postemergence; for plant injury at 125 g/ha: 125 g ai/ha, visual rating about 10 d after treatment, read-out: Wheat plant response rating (0 to 100 scale); for plant injury at 500 g/ha: 500 g ai/ha, visual injury, 0 to 100 scale (0 no effect, 100 complete control), approx. 10 d, read-out: Plant response rating, Wheat
Summary of the method: as §1

corn (Zea mays) [15] = assay: Test A postemergence; conditions: Zea mays, post-emergence, 240 h, Postemergence; for plant injury at 125 g/ha: 125 g ai/ha, visual rating about 10 d after treatment, read-out: Corn plant response rating (0 to 100 scale); for Corn plant response rating (crop injury, 0 = no effect, 100 = complete kill) at 500 g/ha: 500 g ai/ha, visual injury, 0 to 100 scale (0 no effect, 100 complete control), approx. 10 d
Summary of the method: as §1

[16] = system: crabgrass, large (Digitaria sanguinalis); assay: Test A postemergence; conditions: Digitaria sanguinalis, post-emergence, 240 h, Postemergence; for pest or weed control at 125 g/ha: 125 g ai/ha, visual rating about 10 d after treatment, read-out: Crabgrass, Large plant response rating (0 to 100 scale); for pest or weed control at 500 g/ha: 500 g ai/ha, visual injury, 0 to 100 scale (0 no effect, 100 complete control), approx. 10 d, read-out: Plant response rating, Crabgrass, Large
Summary of the method: as §1

CN1C[C@H](c2ccccc2)[C@](C)(C(=O)Nc2ccccc2F)C1=O (racemic) [Compound 1360]
0%: pest or weed control at 500 g/ha [1] | pest or weed control at 125 g/ha [1] | pest or weed control at 500 g/ha [2] | pest or weed control at 125 g/ha [2] | pest or weed control at 500 g/ha [3] | pest or weed control at 125 g/ha [3] | pest or weed control at 500 g/ha [4] | pest or weed control at 125 g/ha [4] | pest or weed control at 500 g/ha [5] | pest or weed control at 125 g/ha [5] | plant injury at 500 g/ha [6] | plant injury at 125 g/ha [6] | Corn plant response rating (crop injury, 0 = no effect, 100 = complete kill) at 500 g/ha (corn (Zea mays) [7]) | Corn plant response rating (crop injury, 0 = no effect, 100 = complete kill) at 125 g/ha (corn (Zea mays) [7]) | pest or weed control at 500 g/ha [8] | pest or weed control at 125 g/ha [8] | pest or weed control at 125 g/ha [9] | pest or weed control at 500 g/ha [9] | pest or weed control at 125 g/ha [10] | pest or weed control at 500 g/ha [10] | pest or weed control at 125 g/ha [11] | pest or weed control at 500 g/ha [11] | pest or weed control at 125 g/ha [12] | pest or weed control at 500 g/ha [12] | pest or weed control at 125 g/ha [13] | pest or weed control at 500 g/ha [13] | plant injury at 125 g/ha [14] | plant injury at 500 g/ha [14] | plant injury at 125 g/ha (corn (Zea mays) [15]) | Corn plant response rating (crop injury, 0 = no effect, 100 = complete kill) at 500 g/ha (corn (Zea mays) [15]) | pest or weed control at 125 g/ha [16] | pest or weed control at 500 g/ha [16]

O=C1NCC(c2c(Cl)cccc2Cl)C1C(=O)Nc1ccccc1F (stereo not shown) [Compound 1361]
0%: pest or weed control at 500 g/ha [1] | pest or weed control at 125 g/ha [1] | pest or weed control at 500 g/ha [2] | pest or weed control at 125 g/ha [2] | pest or weed control at 500 g/ha [3] | pest or weed control at 125 g/ha [3] | pest or weed control at 500 g/ha [4] | pest or weed control at 125 g/ha [4] | pest or weed control at 500 g/ha [5] | pest or weed control at 125 g/ha [5] | plant injury at 500 g/ha [6] | plant injury at 125 g/ha [6] | Corn plant response rating (crop injury, 0 = no effect, 100 = complete kill) at 500 g/ha (corn (Zea mays) [7]) | Corn plant response rating (crop injury, 0 = no effect, 100 = complete kill) at 125 g/ha (corn (Zea mays) [7]) | pest or weed control at 500 g/ha [8] | pest or weed control at 125 g/ha [8] | pest or weed control at 125 g/ha [9] | pest or weed control at 500 g/ha [9] | pest or weed control at 125 g/ha [10] | pest or weed control at 500 g/ha [10] | pest or weed control at 125 g/ha [11] | pest or weed control at 500 g/ha [11] | pest or weed control at 125 g/ha [12] | pest or weed control at 500 g/ha [12] | pest or weed control at 125 g/ha [13] | pest or weed control at 500 g/ha [13] | plant injury at 125 g/ha [14] | plant injury at 500 g/ha [14] | plant injury at 125 g/ha (corn (Zea mays) [15]) | Corn plant response rating (crop injury, 0 = no effect, 100 = complete kill) at 500 g/ha (corn (Zea mays) [15]) | pest or weed control at 125 g/ha [16] | pest or weed control at 500 g/ha [16]
